# Source: US8658668B2, “PI3 kinase/mTOR dual inhibitor” (Eli Lilly and Company, priority 2011, dated 2014)
# Columns and labels:
# [1] = tested on: OVXF 550 human tumor xenograft cells; assay: Oncotest tumor clonogenic assay, OVXF 550; assay type: cell-based; conditions: colony formation, Ovary OVXF 550, carcinoma, read-out: Absolute IC50
# [2] = tested on: LXFA 1041 human tumor xenograft cells; assay: Oncotest tumor clonogenic assay, LXFA 1041; assay type: cell-based; conditions: colony formation, NSCLC LXFA 1041, adeno carcinoma, md, read-out: Absolute IC50
# HT-1080 = assay: Cell proliferation assay (CellTiter-Glo), HT-1080; assay type: cell-based; conditions: Homo sapiens, HT-1080, 72 h
# Method: (§1) Plate cells in a 96-well plate at 2000 cells/well in 100 μL of cell specific medium (for U87MG use DMEM, 10% FBS, 25 mM 4-(2-hydroxyethyl)-1-piperazineethanesulfonic acid (HEPES), 1.0 mM sodium pyruvate, and 0.1 mM Non Essential Amino Acids (ATCC Cat.#30-2002); for HT1080 use Eagle's MEM, 10% FBS (ATCC Cat.#30-2003); for H1975, A2780, SJSA-1 and 786-O use RPMI 1640, 10% FBS (ATCC Cat.#30-2001); for A204 use McCoy's 5A, 10% FBS (ATCC Cat.#30-2007) except in column 1 use medium only as the blank control. Incubate the plates overnight at 37° C. and 5% CO2. On the next day, prepare compound stocks at 1 mM in DMSO and serially dilute in DMSO in a 96-well round bottom polypropylene plate. Assay compounds at 10 concentrations in duplicate, 4 compounds per plate.
# (§2) Transfer 4 μL of the DMSO serial dilutions to a 96 well plate and add 196 μL of culture medium to create a 10× stock for dosing. Gently transfer 11 μL of each dosing stock to the corresponding well of the cell plate resulting in a 0.2% DMSO concentration and a 111 μL final volume. […]
# (§3) Prepared the CellTiter-Glo reagent (Promega, Cat: G7571) and add 100 µL to each well after the incubation is complete, homogenize the cells by mixing on an orbital shaker for 2 min and then incubate at RT for 10 min to allow the luminescent signal to stabilize. Record the luminescent raw data with a Wallac Victor V plate reader. […]
# [3] = tested on: LXFE 211 human tumor xenograft cells; assay: Oncotest tumor clonogenic assay, LXFE 211; assay type: cell-based; conditions: colony formation, NSCLC LXFE 211, squamous cell carcinoma, ud, read-out: Absolute IC50
# PI3Ka = PI3Ka (Homo sapiens, UniProt P42336); assay: PI3Ka Scintillation Proximity Assay; assay type: biochemical; conditions: 10 μM ATP; n=2; read-out: absolute IC50
# Chain of PI3Ka (P42336 whole entry): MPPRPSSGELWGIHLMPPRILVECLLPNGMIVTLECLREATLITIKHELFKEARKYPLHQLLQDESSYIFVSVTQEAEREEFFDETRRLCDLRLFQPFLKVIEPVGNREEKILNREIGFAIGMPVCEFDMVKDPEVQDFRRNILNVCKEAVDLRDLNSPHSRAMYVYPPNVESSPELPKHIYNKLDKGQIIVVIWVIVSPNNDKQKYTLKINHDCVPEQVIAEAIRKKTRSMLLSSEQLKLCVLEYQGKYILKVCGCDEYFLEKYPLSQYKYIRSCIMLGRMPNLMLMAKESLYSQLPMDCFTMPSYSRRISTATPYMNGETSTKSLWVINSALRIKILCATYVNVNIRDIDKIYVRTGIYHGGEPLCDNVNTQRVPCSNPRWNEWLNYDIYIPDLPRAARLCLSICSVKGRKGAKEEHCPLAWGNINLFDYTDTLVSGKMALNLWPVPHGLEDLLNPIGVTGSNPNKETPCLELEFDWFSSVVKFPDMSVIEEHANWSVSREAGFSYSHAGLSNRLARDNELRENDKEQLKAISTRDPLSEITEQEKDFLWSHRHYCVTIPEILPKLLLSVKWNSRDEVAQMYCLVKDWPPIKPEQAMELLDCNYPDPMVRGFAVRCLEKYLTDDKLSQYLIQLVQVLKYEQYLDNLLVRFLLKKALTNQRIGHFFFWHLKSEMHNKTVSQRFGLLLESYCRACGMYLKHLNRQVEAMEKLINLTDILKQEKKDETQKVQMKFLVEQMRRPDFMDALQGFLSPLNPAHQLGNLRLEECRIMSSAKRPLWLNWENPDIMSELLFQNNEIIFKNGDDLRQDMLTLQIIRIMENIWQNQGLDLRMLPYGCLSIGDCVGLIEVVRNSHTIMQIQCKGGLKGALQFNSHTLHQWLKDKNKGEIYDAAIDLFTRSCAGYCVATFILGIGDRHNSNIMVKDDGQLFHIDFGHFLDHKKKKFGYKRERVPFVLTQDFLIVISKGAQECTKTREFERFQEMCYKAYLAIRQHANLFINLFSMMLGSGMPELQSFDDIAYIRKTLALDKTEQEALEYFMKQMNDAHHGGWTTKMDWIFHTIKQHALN
# Chain of PI3Ka (P27986 whole entry partner): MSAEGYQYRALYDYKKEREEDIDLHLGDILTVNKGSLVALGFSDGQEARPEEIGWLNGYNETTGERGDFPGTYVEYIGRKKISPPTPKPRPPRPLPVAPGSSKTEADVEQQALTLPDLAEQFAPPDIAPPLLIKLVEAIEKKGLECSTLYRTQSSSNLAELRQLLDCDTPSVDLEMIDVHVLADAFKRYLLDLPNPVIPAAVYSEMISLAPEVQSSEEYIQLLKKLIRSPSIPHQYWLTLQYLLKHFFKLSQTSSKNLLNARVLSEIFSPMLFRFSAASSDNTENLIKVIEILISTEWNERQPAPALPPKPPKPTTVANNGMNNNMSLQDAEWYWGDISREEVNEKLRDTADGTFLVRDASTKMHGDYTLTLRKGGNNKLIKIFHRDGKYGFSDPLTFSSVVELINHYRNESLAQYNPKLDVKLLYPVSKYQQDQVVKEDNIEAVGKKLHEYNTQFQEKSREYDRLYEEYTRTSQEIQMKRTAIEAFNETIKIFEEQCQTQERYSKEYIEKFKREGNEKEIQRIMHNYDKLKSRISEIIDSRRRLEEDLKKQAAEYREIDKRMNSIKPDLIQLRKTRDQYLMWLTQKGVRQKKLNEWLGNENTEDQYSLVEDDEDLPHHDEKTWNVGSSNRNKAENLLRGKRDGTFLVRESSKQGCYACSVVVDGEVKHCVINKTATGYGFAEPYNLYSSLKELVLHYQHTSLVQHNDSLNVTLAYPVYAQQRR
# Method: Use the PI3Ka Scintillation Proximity Assay (PI3Ka SPA) to determine compound IC50 values against PI3Ka kinase. This assay assesses the activity PI3Ka in the presence of compound inhibitors by measuring incorporation of γ-P^33-ATP into phosphatidylinositol (4,5)bisphosphate (PIP2). Perform the kinase reactions in 40 μL reaction volumes in 96-well half-area flat bottom white with clear bottom polystyrene plates. Add PI3Ka to start the reaction. Final reaction conditions are 43.75 mM 2,2-bis(hydroxymethyl)-2,2′,2″-nitrilotriethanol (Bis-Tris) pH 7.0, 306 mM sodium chloride (NaCl), 1.76 mM polyethylene glycol octylphenyl ether (Triton® X-100), 10 μM adenosine triphosphate (ATP), 2.9 mM magnesium chloride (MgCl2) and 1 μCi per well γ-P^33-adenosine triphosphate (γ-P^33-ATP), 5.0 nM PI3Ka human recombinant enzyme, 0.2 mM palmitoyl-oleoyl phosphatidylserine (POPS), 0.04 mM phosphatidylinositol (4,5)bisphosphate (PIP2), 4% DMSO and serial dilutions of compound (diluted 1:3 from 20,000 to 1 nM). Incubate at RT for 90 min after adding PI3Ka. Stop the reaction with the addition of 40 μL of a stopping buffer containing 2.5 mg/mL neomycin linked beads (Amersham, Cat# RPNQ0506) and 21 mM ethylenediaminetetraacetic acid (EDTA). Centrifuge plates for 30 min at 1000 revolutions per minute (RPM) and count radioactivity with a Wallac Microbeta Trilux normalized for P^33. […]
# DNA-PK = DNA-PK (Homo sapiens, UniProt P78527); assay: DNA-PK Z'LYTE in vitro enzyme assay; assay type: biochemical; conditions: 25.0 micromolar ATP; read-out: absolute IC50
# Source text: Use the Z'LYTE® kinase assay format (Invitrogen) to determine IC50 values against DNA-PK for a compound. This is a fluorescence based, coupled enzyme assay format based on sensitivity of phosphorylated vs. nonphosphorylated dual labeled peptide substrate (Coumerin on amino terminus, Fluorescein on carboxy terminus) to proteolysis. Use the Fluorescence Resonance Energy Transfer (FRET) ratio to monitor DNA-PK activity where phosphorylation of the peptide protects the peptide from proteolytic cleavage and the FRET of the substrate is maintained. Perform the kinase reaction using 10 microliter reaction volume in a Corning®, low volume NBS, black 384 well plate (Corning® #3676). […] Read the plate on a fluorescence plate reader with 400 nm wavelength excitation filter and emission filters of 445 and 520 nm Use the signal measured with 445 nm filter (specific to Coumarin) over the signal measured with 520 filter (specific to fluorescein) to calculate the FRET ratio. […]
# [4] = tested on: BXF 1228 human tumor xenograft cells; assay: Oncotest tumor clonogenic assay, BXF 1228; assay type: cell-based; conditions: colony formation, Bladder BXF 1228, transitional cell carcinoma, wd, read-out: Absolute IC50
# H1975 = assay: Cell proliferation assay (CellTiter-Glo), H1975; assay type: cell-based; conditions: Homo sapiens, NCI-H1975, 72 h
# Method: as §1, §2, §3
# [5] = tested on: OVXF 1353 human tumor xenograft cells; assay: Oncotest tumor clonogenic assay, OVXF 1353; assay type: cell-based; conditions: colony formation, Ovary OVXF 1353, adeno carcinoma, pd, read-out: Absolute IC50
smiles,measurement,setting,value
"CO[C@@H](C)Cn1c(=O)n(C)c2cnc3ccc(-c4cncc(C(C)(C)O)c4)cc3c21 [Example 1, 8-[5-(1-Hydroxy-1-methylethyl)pyridin-3-yl]-1-[(2S)-2-methoxypropyl]-3-methyl-1,3-dihydro-2H-imidazo[4,5-c]quinolin-2-one]",IC50,[1],0.028 µM
same,IC50,[2],0.205 µM
same,IC50,HT-1080,0.072 µM
same,IC50,[3],0.108 µM
same,IC50,PI3Ka,0.00607 µM
same,IC50,DNA-PK,0.00424 µM
same,IC50,[4],0.031 µM
same,IC50,H1975,0.102 µM
same,IC50,[5],> 0.2 µM
